# Results published in ChEMBL document CHEMBL1141364, “Design and synthesis of indane-ureido-thioisobutyric acids: A novel class of PPARalpha agonists” (Bioorg Med Chem Lett, 2007).
# What was measured:
# [1] = biological target: T1, Peroxisome proliferator-activated receptor alpha (Homo sapiens, UniProt Q07869); assay: Agonist activity at PPARalpha expressed in HEK293 cells by GAL4 transactivation assay; assay type: functional, cell-based
# T1 sequence (Q07869 whole entry): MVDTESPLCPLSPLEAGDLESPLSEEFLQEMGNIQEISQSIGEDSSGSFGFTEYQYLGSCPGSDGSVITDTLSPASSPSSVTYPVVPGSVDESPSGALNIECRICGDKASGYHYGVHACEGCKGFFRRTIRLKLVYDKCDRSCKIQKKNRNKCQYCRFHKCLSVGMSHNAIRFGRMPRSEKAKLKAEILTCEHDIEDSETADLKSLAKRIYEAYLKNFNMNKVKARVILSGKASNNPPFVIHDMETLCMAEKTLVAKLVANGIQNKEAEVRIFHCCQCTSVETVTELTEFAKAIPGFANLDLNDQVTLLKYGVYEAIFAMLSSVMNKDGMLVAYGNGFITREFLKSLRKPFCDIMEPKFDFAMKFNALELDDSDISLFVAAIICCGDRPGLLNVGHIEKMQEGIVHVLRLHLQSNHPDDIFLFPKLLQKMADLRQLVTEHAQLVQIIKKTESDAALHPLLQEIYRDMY
# [2] = biological target: T2, Peroxisome proliferator-activated receptor gamma (Homo sapiens, UniProt P37231)
# T2 sequence (P37231 whole entry): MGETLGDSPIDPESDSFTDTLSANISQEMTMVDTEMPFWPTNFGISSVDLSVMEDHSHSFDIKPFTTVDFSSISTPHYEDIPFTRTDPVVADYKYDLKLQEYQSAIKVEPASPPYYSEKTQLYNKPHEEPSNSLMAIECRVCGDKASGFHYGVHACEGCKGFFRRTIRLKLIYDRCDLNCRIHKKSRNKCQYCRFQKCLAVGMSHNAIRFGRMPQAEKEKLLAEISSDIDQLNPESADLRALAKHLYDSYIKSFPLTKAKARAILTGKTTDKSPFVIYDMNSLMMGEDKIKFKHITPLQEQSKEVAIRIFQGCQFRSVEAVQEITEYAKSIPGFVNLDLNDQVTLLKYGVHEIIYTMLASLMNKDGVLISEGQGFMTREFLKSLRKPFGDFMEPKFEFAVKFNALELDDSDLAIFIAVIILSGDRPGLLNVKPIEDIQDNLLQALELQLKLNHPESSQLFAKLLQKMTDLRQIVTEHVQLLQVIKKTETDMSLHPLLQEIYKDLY
# Description: Agonist activity at PPARgamma expressed in HEK293 cells by GAL4 transactivation assay
# Mus musculus [3] = assay: Reduction in insulin levels in db/db mouse plasma at 0.1 mg/kg, po after 11 days; design: scale not given: the % may be the effect or the level left
# Mus musculus [4] = assay: Reduction in triglyceride levels in db/db mouse plasma at 0.1 mg/kg, po after 11 days; design: scale not given: the % may be the effect or the level left
# [5] = biological target: T3, Peroxisome proliferator-activated receptor alpha (Rattus norvegicus, UniProt P37230); assay: Agonist activity at rat PPARalpha in rat H4IIE cells assessed as gene induction; assay type: functional, cell-based
# T3 sequence (P37230 whole entry): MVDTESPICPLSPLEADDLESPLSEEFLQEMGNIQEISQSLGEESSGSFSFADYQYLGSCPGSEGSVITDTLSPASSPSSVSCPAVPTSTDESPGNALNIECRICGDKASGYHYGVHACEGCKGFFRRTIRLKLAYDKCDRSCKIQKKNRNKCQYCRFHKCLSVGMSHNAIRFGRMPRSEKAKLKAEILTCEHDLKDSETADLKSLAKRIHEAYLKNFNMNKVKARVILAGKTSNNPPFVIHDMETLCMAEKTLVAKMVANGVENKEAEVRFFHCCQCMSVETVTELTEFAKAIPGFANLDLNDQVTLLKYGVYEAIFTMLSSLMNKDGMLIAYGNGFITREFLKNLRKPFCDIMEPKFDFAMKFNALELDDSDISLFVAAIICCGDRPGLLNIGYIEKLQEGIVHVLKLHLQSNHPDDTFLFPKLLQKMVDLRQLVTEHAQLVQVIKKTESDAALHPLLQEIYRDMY
# [6] = biological target: T4, Peroxisome proliferator-activated receptor delta (Homo sapiens, UniProt Q03181); assay: Agonist activity at PPARdelta expressed in HEK293 cells by GAL4 transactivation assay; assay type: functional, cell-based
# T4 sequence (Q03181 whole entry): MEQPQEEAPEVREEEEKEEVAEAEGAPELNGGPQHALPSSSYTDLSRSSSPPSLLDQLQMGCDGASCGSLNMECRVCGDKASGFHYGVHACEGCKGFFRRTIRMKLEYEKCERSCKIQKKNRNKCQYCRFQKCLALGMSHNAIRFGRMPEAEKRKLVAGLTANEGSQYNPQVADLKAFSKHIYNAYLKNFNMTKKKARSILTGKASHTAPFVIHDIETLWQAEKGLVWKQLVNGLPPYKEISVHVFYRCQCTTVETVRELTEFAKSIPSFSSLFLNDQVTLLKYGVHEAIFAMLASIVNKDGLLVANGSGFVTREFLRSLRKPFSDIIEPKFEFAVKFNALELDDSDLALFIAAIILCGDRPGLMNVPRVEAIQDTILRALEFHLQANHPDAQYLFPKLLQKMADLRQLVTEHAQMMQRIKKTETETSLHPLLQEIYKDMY
# [7] = biological target: T5, Peroxisome proliferator-activated receptor gamma (Homo sapiens) (UniProt P37231); assay: Agonist activity at PPARgamma expressed in HEK293 cells assessed as aP2 gene induction relative to BRL-49653; assay type: functional, cell-based
# T5 sequence (whole entry): T2 sequence (P37231 whole entry)
# Mus musculus [8] = assay: Reduction in glucose levels in db/db mouse plasma at 0.1 mg/kg, po after 11 days; design: scale not given: the % may be the effect or the level left
# [9] = AUC in Sprague-Dawley rat at 3 mg/kg, iv or 30 mg/kg, po; assay type: ADME, organism-based; settings: plasma
# [10] = Metabolic stability in human liver microsomes at 5 uM; assay type: ADME, Microsome
# Mus musculus [11] = assay: Reduction in glucose levels in db/db mouse plasma at 1 mg/kg, po after 11 days; design: scale not given: the % may be the effect or the level left
# [12] = Total clearance in Sprague-Dawley rat at 3 mg/kg, iv or 30 mg/kg, po; assay type: ADME, organism-based; settings: in vivo
# Mus musculus [13] = assay: Reduction in body weight of db/db mouse at 1 mg/kg, po after 11 days; design: scale not given: the % may be the effect or the level left
# Mus musculus [14] = assay: Reduction in insulin levels in db/db mouse plasma at 1 mg/kg, po after 11 days; design: scale not given: the % may be the effect or the level left
# [15] = Cmax in Sprague-Dawley rat at 3 mg/kg, iv or 30 mg/kg, po; assay type: ADME, organism-based; settings: in vivo
# [16] = Half life at terminal phase in Sprague-Dawley rat at 30 mg/kg, po; assay type: ADME, organism-based; design: dose 30 mg/kg, route oral; settings: in vivo, read-out: beta t1/2 (converted)
# [17] = Oral bioavailability in Sprague-Dawley rat at 30 mg/kg; assay type: ADME, organism-based; settings: in vivo
# Mus musculus [18] = assay: Reduction in triglyceride levels in db/db mouse plasma at 1 mg/kg, po after 11 days; design: scale not given: the % may be the effect or the level left
Structure (SMILES),EC50 [1] [nM],EC50 [2] [nM],Activity (Mus musculus [3]) [%],Activity (Mus musculus [4]) [%],EC50 [5] [nM],EC50 [6] [nM],Activity [7] [%],Activity (Mus musculus [8]) [%],AUC [9] [µg·h/mL],half-life at 5 µM [10] [h],Activity (Mus musculus [11]) [%],clearance [12] [mL/min/kg],Activity (Mus musculus [13]) [%],Activity (Mus musculus [14]) [%],Cmax [15] [ng/mL],half-life [16] [h],bioavailability [17] [%],Activity (Mus musculus [18]) [%]
CCN(C(=O)Nc1ccc(OC(F)(F)F)cc1)[C@@H]1Cc2ccc(SC(C)(C)C(=O)O)cc2C1,170,> 10000,49,43,2,2100,3.8,16,–,–,–,–,–,–,–,–,–,–
CCN(C(=O)Nc1ccc(OC(F)(F)F)cc1)C1Cc2ccc(SC(C)(C)C(=O)O)cc2C1 (configuration not stated),–,–,–,–,33,–,–,–,290,1.67,60,0.1,59,53,39300,4,59,56
CCCCCCCN(CCc1ccc(SC(C)(C)C(=O)O)cc1)C(=O)Nc1ccc(F)cc1F [GSK-9578],–,–,–,–,166,150,0.46,–,–,–,–,–,–,–,–,–,–,–
